“And” between values parts separate entries of the source, which are not always exact repeats. Equal values may be shown once. “Also recorded” adds a separate entry of the source.
Columns and labels:
[1] = Cholestasis (ALP and BA levels) in PSC and PBC patients; type: in vivo, human
IL-31 [2] = experiment: Serum IL-31 (SIMOA assay), Phase 2 study of cilofexor in PBC patients; type: in vivo, human
Experimental: (§1) Serum IL-31 (SIMOA® assay; Myriad, Austin, TX) was measured in two Phase 2 studies of cilofexor (CILO, a non-steroidal FXR agonist) in PSC (n=52) and PBC (n=71). In all studies, patients were randomized 2:2:1 to CILO 100 mg, 30 mg, or placebo daily. Associations between serum IL-31 and pruritus-related adverse events and patient-reported outcomes (Visual Analog Scale [VAS] and 5-D Itch) were determined. In PBC, IL-31 correlated to VAS (ρ=0.42, p<0.001) and 5-D Itch (ρ=0.58, p<0.001) (Table 6).

FGF-19 [3] = experiment: FGF-19 target engagement in healthy volunteers; type: in vivo, human; conditions: CILO 100 mg, 4 hr post-dose
Text: (§2) Activation of FXR in the intestinal epithelial cells induces FGF-19 secretion. FGF-19 suppressed CYP7A1 expression, which is a key enzyme to […] 7α-hydroxycholesterol. 7α-hydroxycholesterol is metabolized into 7α-hydroxy-4-cholesten-3-one (C4). The increased FGF-19 and reduced C4 levels in circulation are target engagement assessments for FXR agonists.

IL-31 [4] = experiment: Serum IL-31 (SIMOA assay), Phase 2 study of cilofexor in non-cirrhotic NASH patients; type: in vivo, human; conditions: for Serum IL-31, median (IQR) / Increase of IL-31 in patients with grade 2 or 3 pruritus versus the others: NASH
Experimental: Serum IL-31 (SIMOA©assay; Myriad, Austin, TX) was measured in a Phase 2 study of cilofexor (CILO, a non-steroidal FXR agonist) in non-cirrhotic NASH (n=140) patients. Patients were randomized 2:2:1 to CILO 100 mg, 30 mg, or placebo daily. Associations between serum IL-31 and pruritus-related adverse events and patient-reported outcomes (Visual Analog Scale [VAS] and 5-D Itch) were determined.

IL-31 [5] = experiment: Serum IL-31 in serially collected samples (intensive sampling), CILO NASH study; type: in vivo, human; conditions: NASH patients, CILO 100 mg
Experimental: A similar intensive sampling study was also performed in the CILO NASH study. IL-31 levels in the serially collected samples were compared in NASH patients and HVs with CILO 100 mg. In HVs with CILO 100 mg, serum IL-31 achieved the peak concentration of 0.22 pg/mL and 2.6 fold increase from pre-dose (data not shown). NASH patients with the same dose had more increased serum IL-31 than HV. […] Activation of FXR in the intestinal epithelial cells induces FGF-19 secretion. FGF-19 suppressed CYP7A1 expression, which is a key enzyme to […] 7α-hydroxycholesterol. 7α-hydroxycholesterol is metabolized into 7α-hydroxy-4-cholesten-3-one (C4). The increased FGF-19 and reduced C4 levels in circulation are target engagement assessments for FXR agonists.

IL-31 [6] = experiment: Serum IL-31 pre-dose and post-dose, CILO phase 1 study in healthy volunteers; type: in vivo, human
Experimental: In the CILO phase 1 study, serum IL-31 levels were assessed in pre-dose and post-dose (from 1 to 8 hr) samples from the healthy volunteers (HVs) with placebo or CILO 30 mg, 100 mg or 300 mg. The HVs with CILO 100 mg or 300 mg had elevated serum IL-31 levels with peak concentration at 4-6 hr post-dose samples (data not shown). A similar intensive sampling study was also performed in the CILO NASH study. IL-31 levels in the serially collected samples were compared in NASH patients and HVs with CILO 100 mg. In HVs with CILO 100 mg, serum IL-31 achieved the peak concentration of 0.22 pg/mL and 2.6 fold increase from pre-dose (data not shown). NASH patients with the same dose had more increased serum IL-31 than HV.

IL-31 [7] = experiment: Serum IL-31 (SIMOA assay), Phase 2 study of cilofexor in PSC patients; type: in vivo, human
Experimental: as §1, with “determined.” for “determined. In PBC, IL-31 correlated to VAS (ρ=0.42, p<0.001) and 5-D Itch (ρ=0.58, p<0.001) (Table 6).”

IL-4 = experiment: Serum IL-4 and other inflammatory markers in the CILO NASH study; type: in vivo, human; conditions: NASH patients
Experimental: IL-31 is expressed and secreted by activated T helper 2 (Th2) cell. IL-4, a type II immune cytokine, was associated with activation of Th2 cells and serum IL-31 levels in patients with atopic dermatitis. Serum IL-4 levels were assessed in the CILO NASH and PSC studies.

[8] = system: 7α-hydroxy-4-cholesten-3-one (C4); experiment: C4 levels in circulation, CILO NASH study; type: in vivo, human
Text: as §2

FGF-19 [9] = experiment: FGF-19 target engagement in NASH patients; type: in vivo, human
Text: as §2

[10] = Pruritus adverse events, Phase 2 study of cilofexor in PSC patients; type: in vivo, human
Experimental: as §1, with “determined.” for “determined. In PBC, IL-31 correlated to VAS (ρ=0.42, p<0.001) and 5-D Itch (ρ=0.58, p<0.001) (Table 6).”

human IL-31 = experiment: IL-31 in chimeric PXB mice with human hepatocytes treated with OCA; type: in vivo; conditions: OCA 10 mg/kg QD for 18 days
[11] = PBC, serially collected blood samples, 100 mg CILO, 5 hr post-dose
[12] = serially collected blood samples, 100 mg CILO, 6 hr post-dose

For O=C(O)c1ccnc(N2CC(O)(c3ccc(OCc4c(-c5c(Cl)cccc5Cl)noc4C4CC4)cc3Cl)C2)c1 [CILO, cilofexor], the “Effect on cholestasis (ALP and BA levels)” value [1] was “improved cholestasis”, the “Dose-dependent effect on serum IL-31” value (IL-31 [2]; PBC patients) was “not observed” and the “Effect on serum IL-31 levels” value (IL-31 [2]; PBC patients, fasting samples at Weeks 1, 4 and 12, compared to placebo) was “did NOT change; also recorded: no effect; also recorded: did not alter”. The “IL-31 increase from pre-dose” value (IL-31 [2]; [11]) was 2.5 fold, the IL-31 level post-dose (IL-31 [2]; [11]) was 7.4 pg/mL and the “IL-31 median level at pre-dose” value (IL-31 [2]; PBC, serially collected blood samples, 100 mg CILO, pre-dose) was 3 pg/mL. For the same molecule, the FGF-19 peak concentration (FGF-19 [3]) was 591.6 pg/mL, the “Effect on serum IL-31” value (IL-31 [4]; NASH patients, week 1 to week 24, 30 mg and 100 mg) was “increased serum IL-31 in a dose-dependent manner” and the “Serum IL-31, median (IQR)” value (IL-31 [4]; CILO 30 mg, Baseline) was 0.09 pg/mL. For the same molecule, the “Serum IL-31, median (IQR)” value (IL-31 [4]; CILO 30 mg, Week 1) was 0.15 pg/mL, the “Serum IL-31, median (IQR)” value (IL-31 [4]; CILO 30 mg, Week 4) was 0.105 pg/mL and the “Serum IL-31, median (IQR)” value (IL-31 [4]; CILO 30 mg, Week 8) was 0.14 pg/mL. For the same molecule, the “Serum IL-31, median (IQR)” value (IL-31 [4]; CILO 30 mg, Week 12) was 0.145 pg/mL, the “Serum IL-31, median (IQR)” value (IL-31 [4]; CILO 30 mg, Week 24) was 0.15 (0.062, 0.27) pg/mL and 0.15 pg/mL and the “Serum IL-31, median (IQR)” value (IL-31 [4]; CILO 100 mg, Baseline) was 0.083 pg/mL. The “Serum IL-31, median (IQR)” value (IL-31 [4]; CILO 100 mg, Week 1) was 0.21 pg/mL, the “Serum IL-31, median (IQR)” value (IL-31 [4]; CILO 100 mg, Week 4) was 0.24 pg/mL and the “Serum IL-31, median (IQR)” value (IL-31 [4]; CILO 100 mg, Week 8) was 0.26 pg/mL. For the same molecule, the “Serum IL-31, median (IQR)” value (IL-31 [4]; CILO 100 mg, Week 12) was 0.26 pg/mL, the “Serum IL-31, median (IQR)” value (IL-31 [4]; CILO 100 mg, Week 24) was 0.26 (0.13, 0.82) pg/mL and 0.26 pg/mL and the “Increase of IL-31 in patients with grade 2 or 3 pruritus versus the others” value (from here on “Increase of IL-31 in patients”) (IL-31 [4]; W1) was 5.1 fold. For the same molecule, the “Increase of IL-31 in patients” value (IL-31 [4]; W4) was 2.9 fold, the “Increase of IL-31 in patients” value (IL-31 [4]; W8) was 3.8 fold and the “Increase of IL-31 in patients” value (IL-31 [4]; W12) was 4.5 fold. The “Increase of IL-31 in patients” value (IL-31 [4]; W24) was 7 fold, the “Serum IL-31 peak concentration” value (IL-31 [5]; 4-6 hr post-dose) was 13 pg/mL and 12 to 13 pg/mL and the “Serum IL-31 increase from pre-dose” value (IL-31 [5]; at peak) was 23.6 fold and 21.8-23.6 fold. For the same molecule, the “Serum IL-31 peak concentration” value (IL-31 [6]; CILO 100 mg) was 0.22 pg/mL, the “Serum IL-31 levels post-dose” value (IL-31 [6]; CILO 100 mg or 300 mg) was “elevated” and the “Time of peak serum IL-31 concentration post-dose” value (IL-31 [6]; CILO 100 mg or 300 mg) was 4 to 6 h. For the same molecule, the “Serum IL-31 increase from pre-dose” value (IL-31 [6]; CILO 100 mg, at peak) was 2.6 fold, the “Dose-dependent effect on serum IL-31” value (IL-31 [7]) was “not observed” and the “Effect on serum IL-31 levels” value (IL-31 [7]; 12-week treatment) was “did not alter; also recorded: no effect”. For the same molecule, the “Effect on other inflammatory markers (IL-4 and IL-18)” value (IL-4) was “without changing”, the “Effect on serum IL-4” value (IL-4) was “did not elevate” and the “C4 levels compared to placebo” value ([8]; W24, CILO 30 mg) was “significantly declined”. For the same molecule, the “C4 levels compared to placebo” value ([8]; W24, CILO 100 mg) was “significantly declined”, the FGF-19 peak concentration (FGF-19 [9]; NASH patients, CILO 100 mg, 4 hr post-dose) was 829.7 pg/mL and the “FGF-19 increase from pre-dose” value (FGF-19 [9]; [12]) was 45.9 fold. For the same molecule, the FGF-19 peak concentration (FGF-19 [9]; [12]) was “around 1826 pg/mL”, the “FGF-19 median at pre-dose” value (FGF-19 [9]; serially collected blood samples, 100 mg CILO, pre-dose) was 39.8 pg/mL and the Effect on pruritus [10] was “did not exacerbate pruritus”. For the same molecule, the “Any Grade pruritus, patients” value ([10]; CILO 30 mg) was 5, the “Grade 1 pruritus, patients” value ([10]; CILO 30 mg) was 2 and the “Grade 2 pruritus, patients” value ([10]; CILO 30 mg) was 1. The “Grade 3 pruritus, patients” value ([10]; CILO 30 mg) was 2, the “Patients who reported grade 2 or 3 pruritus” value ([10]; CILO 30 mg) was 3 subjects and the “Any Grade pruritus, patients” value ([10]; CILO 100 mg) was 8. For the same molecule, the “Grade 1 pruritus, patients” value ([10]; CILO 100 mg) was 5, the “Grade 2 pruritus, patients” value ([10]; CILO 100 mg) was 1 and the “Grade 3 pruritus, patients” value ([10]; CILO 100 mg) was 2. For the same molecule, the “Patients who reported grade 2 or 3 pruritus” value ([10]; CILO 100 mg) was 3 subjects.
With CC[C@H]1[C@@H](O)[C@@H]2[C@H](CC[C@]3(C)[C@@H]([C@H](C)CCC(=O)O)CC[C@@H]23)[C@@]2(C)CC[C@@H](O)C[C@@H]12 [OCA, obeticholic acid] the “Hepatic IL-31 mRNA expression vs vehicle” value (human IL-31) was 7.8 fold.
